The values below come from patent US8816088B2 (Theravance, Inc., priority 2009, dated 2014).

Where a name gives a salt, the structure may show the parent alone.

The test concerns MCh-induced bronchoconstriction. In words: Einthoven assay: bronchoprotection against methacholine (MCh)-induced bronchoconstriction. Format: in vivo. The settings on record: Rattus norvegicus, inhaled or nasal, 24 h, read-out: Broncho. at 24 h, Bronchoprotective effect present at 24 h, 100 μg by inhalation, 24 h after administration. As to the method:
This assay measures the ability of a test compound to provide bronchoprotection against methacholine (MCh)-induced bronchoconstriction in a rat. Male Sprague-Dawley rats (Harlan, Indianapolis, Ind.), weighing between 200 g and 350 g, were used for all studies. Test compound or vehicle (sterile deionized water) were dosed by inhalation (1H) over a 10 min period in a pie shaped inhalation chamber (R+S Molds, San Carlos, Calif.) using 5 mL of dosing solution. […] Rats were dosed with 100 μg of test compound unless otherwise indicated. At predetermined time points, rats were anesthetized with an intraperitoneal (IP) injection of 120 mg/kg inactin (thiobutabarbital). A supplemental dose (40 mg/kg, IP) was administered if the animal responded to physical stimuli (e.g. toe pinch). The surgical site was shaved and a 1-2 cm midline incision of the ventral aspect of the neck was made. The jugular vein was isolated and cannulated with a saline-filled polyethylene catheter (PE-50) to allow IV infusion of MCh. Trachea was dissected free and cannulated with a 14G needle (#NE-014, Small Parts, Miami Lakes, Fla.). After placement of the tracheal cannula, each rat was ventilated using a respirator (Model 683, Harvard Apparatus, Inc., MA) set at a stroke volume of 1 mL/100 g body weight (but not exceeding 2.5 mL volume) and a rate of 90 strokes per minute. A T-connector was placed along the respirator expiratory tubing to allow for measurement of changes in ventilation pressure (VP) using a Biopac transducer that was connected to a Biopac […]) pre-amplifier. Body temperature was maintained at 37° C. using a heating pad. Changes in VP were recorded using the Acknowledge Data Collection Software (Santa Barbara, Calif.). Baseline values were collected for at least 2.5 min. Rats were then challenged with non-cumulative intravenous (IV) infusions of 40 and 80 μg/kg MCh. MCh was infused intravenously for 2.5 minutes from a syringe pump (sp210iw, World Precision Instruments, Inc., Sarasota, Fla.) at a rate of 2 mL/kg/min, with a 2 minute interval between the two doses of MCh. Changes in ventilation pressure (cm H2O) in treated animals are expressed as % inhibition of MCh response relative to control animals. Other bronchoconstrictors, such as histamine and acetylcholine, can be used in place of MCh in this assay. Additionally, guinea pigs can be used instead of rats. […] Inhibition greater than or equal to 30 percent at 24 h is indicative of a long duration of action.
Consider `Cc1cc(CNC[C@H](O)c2ccc(O)c3[nH]c(=O)ccc23)ccc1NC(=O)CCCN(C)C(=O)CCN1CCC(OC(=O)Nc2ccccc2-c2ccccc2)CC1` [Compound I-2, Biphenyl-2-ylcarbamic acid 1-(2-{[3-(4-{[(R)-2-hydroxy-2-(8-hydroxy-2-oxo-1,2-dihydroquinolin-5-yl)ethylamino]methyl}-2-methylphenylcarbamoyl)-propyl]methylcarbamoyl}ethyl)piperidin-4-yl ester ditrifluoroacetic acid salt], for which the inhibition in vivo at 0.1 mg was < 30%. Take `CC(Cc1ccc(CNC(=O)Cc2ccc(N(C)C(=O)CCN3CCC(OC(=O)Nc4ccccc4-c4ccccc4)CC3)cc2)cc1)NC[C@H](O)c1ccc(O)c2[nH]c(=O)ccc12` (stereo partly drawn) [Compound I-66, Biphenyl-2-ylcarbamic acid 1-[2-({4-[(4-{2-[(R)-2-hydroxy-2-(8-hydroxy-2-oxo-1,2-dihydroquinolin-5-yl)-ethylamino]propyl}benzylcarbamoyl)methyl]phenyl}-methylcarbamoyl)ethyl]piperidin-4-yl ester ditrifluoroacetic acid salt]: the inhibition in vivo at 0.1 mg was < 30%. To `CC(Cc1cccc(CC(=O)Nc2cccc(N(C)C(=O)CCN3CCC(OC(=O)Nc4ccccc4-c4ccccc4)CC3)c2)c1)NC[C@H](O)c1ccc(O)c2[nH]c(=O)ccc12` (some centres unmarked) [Compound I-52, ditrifluoroacetic acid salt] belongs < 30%.

`C[C@H](Cc1cccc(CC(=O)NCCCN(C)C(=O)CCN2CCC(OC(=O)Nc3ccccc3-c3ccccc3)CC2)c1)NC[C@H](O)c1ccc(O)c2[nH]c(=O)ccc12` [Compound I-12, Biphenyl-2-ylcarbamic acid 1-[2-({3-[2-(3-{(R)-2-[(R)-2-hydroxy-2-(8-hydroxy-2-oxo-1,2-dihydroquinolin-5-yl)ethylamino]propyl}phenyl)acetylamino]propyl}-methylcarbamoyl)ethyl]piperidin-4-yl ester ditrifluoroacetic acid salt]: the inhibition in vivo at 0.1 mg is < 30%. On to `CN(C(=O)CCN1CCC(OC(=O)Nc2ccccc2-c2ccccc2)CC1)c1ccc(CC(=O)NCc2ccc(CCNC[C@H](O)c3ccc(O)c4[nH]c(=O)ccc34)cc2)cc1` [Compound I-64, Biphenyl-2-ylcarbamic acid 1-[2-({4-[(4-{2-[(R)-2-hydroxy-2-(8-hydroxy-2-oxo-1,2-dihydroquinolin-5-yl)-ethylamino]ethyl}benzylcarbamoyl)methyl]phenyl}-methylcarbamoyl)ethyl]piperidin-4-yl ester ditrifluoroacetic acid salt], for which the inhibition in vivo at 0.1 mg was < 30%.
